Consider ten molecules from patent US6924300B2, “Oxyiminoalkanoic acid derivatives” (Takeda Chemical Industries, Ltd., priority 1998, dated 2005).

Like-named read-outs stand apart in the source and are kept apart here.

The target in series [1] is T1, PPARγ-RXRα heterodimer (Homo sapiens, UniProt P37231).
T1 construct: expressed in transfected cells
T1 sequence (P37231 1-477 isoform P37231-2): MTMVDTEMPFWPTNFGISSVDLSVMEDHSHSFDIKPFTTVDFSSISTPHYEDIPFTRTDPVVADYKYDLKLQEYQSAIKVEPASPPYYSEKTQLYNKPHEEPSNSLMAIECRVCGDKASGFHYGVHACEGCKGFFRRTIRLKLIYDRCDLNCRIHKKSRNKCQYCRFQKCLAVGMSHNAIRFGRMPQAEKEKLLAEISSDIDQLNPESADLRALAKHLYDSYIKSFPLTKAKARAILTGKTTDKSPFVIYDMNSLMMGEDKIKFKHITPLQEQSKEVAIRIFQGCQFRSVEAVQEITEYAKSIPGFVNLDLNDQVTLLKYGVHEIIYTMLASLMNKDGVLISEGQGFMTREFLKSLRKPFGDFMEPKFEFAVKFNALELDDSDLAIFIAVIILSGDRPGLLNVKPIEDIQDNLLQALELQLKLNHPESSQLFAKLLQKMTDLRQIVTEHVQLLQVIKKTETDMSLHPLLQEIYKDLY
T1 sequence (P19793 1-462 partner): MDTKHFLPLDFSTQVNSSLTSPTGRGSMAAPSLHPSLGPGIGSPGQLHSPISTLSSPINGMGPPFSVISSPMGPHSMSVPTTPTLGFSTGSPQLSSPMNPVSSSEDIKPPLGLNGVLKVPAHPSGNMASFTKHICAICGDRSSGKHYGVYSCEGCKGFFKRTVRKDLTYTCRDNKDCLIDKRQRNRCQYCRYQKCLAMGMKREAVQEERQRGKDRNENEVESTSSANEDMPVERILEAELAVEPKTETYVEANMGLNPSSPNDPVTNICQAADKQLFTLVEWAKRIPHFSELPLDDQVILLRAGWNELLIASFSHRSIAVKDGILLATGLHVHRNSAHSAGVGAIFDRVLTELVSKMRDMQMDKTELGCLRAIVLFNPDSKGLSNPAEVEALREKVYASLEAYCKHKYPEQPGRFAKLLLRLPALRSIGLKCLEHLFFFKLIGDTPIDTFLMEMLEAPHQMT
The series is described as follows: PPARγ-RXRα heterodimer transactivation assay (luciferase reporter in PPARγ: RXRα: 4ERPP/CHO-K1 cell). The series is classed as cell-based. Conditions: luciferase induction, 48 hours, concentration for 50% of the maximum activity. As for the experimental part: After washing a 96-well white plate with PBS (Phosphate-buffered saline), 90 μl of HAM F12 medium containing 0.1% fatty acid-free bovine serum albumin (BSA) and 10 μl of a test substance were added to the plate, which was then cultured in a carbonate gas incubator at 37° C. for 48 hours. After removing the medium, 40 μl of […] 7.5 (Wako Pure Chemical Ind. Ltd.) was added, and after stirring, a luciferase activity was determined using Lumistar (BMG Labtechnologies GmBH, Germany).
An induction magnitude was calculated based on the luciferase activity of each test substance with the luciferase activity in the non-treatment group being regarded as 1.
Subsequently, the cells were transferred into a HAM F12 medium containing 10% Fetal Bovine Serum and cultured for 24 hours and then the cells were scraped again and centrifuged, and then suspended in HAM F12 medium containing 10% Fetal Bovine Serum supplemented with 500 μg/ml of GENETICIN (Life Technologies, Inc., USA) and 250 μg of ZEOCIN (Invitrogen, USA) and diluted to the density of 10^4 cells/ml upon inoculation to a 96-well plate (Corning Coster Corporation, USA), which was cultured in a carbonate gas incubator at 37° C., whereby obtaining a GENETICIN- and ZEOCIN-resistant transformant.
Subsequently, the transformant cell line thus obtained was cultured in a 24-well plate (Corning Coster Corporation, USA) and then screened, by addition of 10 μM Pioglitazone, for a cell line in which the luciferase expression was induced, i.e., PPARγ: RXRα: 4ERPP/CHO-K1 cell.
(A reporter such as luciferase makes a cellular process visible.)

The subject of series [2] is KKA^y mice. The series is described as follows: Hypoglycemic and hypolipidemic actions in mice (test compound in diet, plasma glucose and triglyceride). The series is classed as in vivo. Conditions: Mus musculus, feed or water, 96 h, dosage: 0.005% in diet, 4 days.
The test system of series [3] is KKA^y mice. Described as above. It is filed as in vivo. Conditions: Mus musculus, feed or water, 96 h, 4 days. As for the experimental part:
A test compound was added to a powdered diet (CE-2, Clea Japan Inc.) at a concentration of 0.01%, and the diet was given ad libitum to KKA^y mice (9 to 12 weeks old, 5 animals in a group), a model of obese Type II diabetes mellitus (non-insulin dependent diabetes mellitus), for 4 days. During this period, water was given ad libitum. Blood was sampled from orbital venous plexus and plasma glucose and triglyceride levels were determined enzymatically using L type Wako Glu2 (Wako Pure Chemical In. Ltd.) and Iatro-MA701 TG kit (Iatron Laboratories Inc.) or L type Wako TG.H (Wako Pure Chemical Ind. Ltd.), respectively.
The value of each treatment group is represented as % reduction when compared with the non-treatment group, and summarized in Table 1.

Setting [4] is: 0.01% in diet, plasma triglyceride, quantified using L-type Wako TG.H, read-out: Hypotriglyceridemic effect (% reduction).
Where [5] appears, read: 0.01% in powdered diet, plasma glucose, compared with non-treatment group, read-out: Hypoglycemic effect (% reduction).
[6] abbreviates: 0.01% in diet, plasma triglyceride, Iatro-MA701 TG kit, compared with non-treatment group, read-out: Hypotriglyceridemic effect (% reduction).

As for `Cc1oc(-c2ccccc2)nc1COc1ccc(CO/N=C(\CCC(N)=O)c2ccccc2)cc1` [Example 106, E-4-[4-(5-methyl-2-phenyl-4-oxazolylmethoxy)benzyloxyimino]-4-phenylbutyramide], the melting point was in the range of 164 to 165 °C. Moreover, the EC50 in series [1] stood at 330 nM. Also, in series [2] (plasma glucose, compared with non-treatment group, read-out: Hypoglycemic effect (% reduction)), the inhibition in vivo at 0.005 % was determined as 46%. Further, the inhibition in vivo at 0.005 % in series [2] (plasma triglyceride, quantified using L-type Wako TG.H, read-out: Hypotriglyceridemic effect (% reduction)) is 65%.

With `Cc1oc(-c2ccccc2)nc1COc1ccc(CO/N=C(\CCCCCCC(=O)O)c2ccccc2)cc1` [Example 81, E-8-[4-(5-methyl-2-phenyl-4-oxazolylmethoxy)benzyloxyimino]-8-phenyloctanoic acid], the values for the inhibition in vivo at 0.01 % in series [3] (setting [4]) and in series [3] (setting [5]) were 75% and 54%, respectively. The same molecule returned an EC50 in series [1] of 260 nM.

Turning to `Cc1oc(-c2ccccc2)nc1COc1ccc(CO/N=C(\C(=O)O)c2ccccc2)cc1` [Example 1, Z-2-[4-(5-methyl-2-phenyl-4-oxazolylmethoxy)benzyloxyimino]-2-phenylacetic acid], the inhibition in vivo at 0.01 % came out at 35% in series [3] (setting [6]) and 36% in series [3] (setting [5]).

On to `Cc1oc(-c2ccccc2)nc1COc1ccc(CO/N=C(\C(=O)O)c2ccc(Oc3ccccc3)cc2)cc1` [Example 11, Z-2-[4-(5-methyl-2-phenyl-4-oxazolylmethoxy)benzyloxyimino]-2-(4-phenoxyphenyl)acetic acid], for which the inhibition in vivo at 0.01 % worked out at 82% in series [3] (setting [6]) and 49% in series [3] (setting [5]). This molecule also displayed an EC50 in series [1] of 410 nM.

Turning to `Cc1oc(-c2ccccc2)nc1COc1ccc(CO/N=C(\CCC(=O)O)c2ccc(F)cc2)cc1` [Example 17, E-4-(4-fluorophenyl)-4-[4-(5-methyl-2-phenyl-4-oxazolylmethoxy)benzyloxyimino]butyric acid], the inhibition in vivo at 0.01 % came out at 59% in series [3] (setting [4]) and 49% in series [3] (setting [5]). Moreover, the EC50 in series [1] turned out to be 47 nM.

Regarding `Cc1oc(-c2ccccc2)nc1COc1ccc(CO/N=C(\C(=O)O)c2ccc(Br)cc2)cc1` [Example 10, Z-2-(4-bromophenyl)-2-[4-(5-methyl-2-phenyl-4-oxazolylmethoxy)benzyloxyimino]acetic acid], the figures for the inhibition in vivo at 0.01 % in series [3] (setting [6]) and in series [3] (setting [5]) were 45% and 36%, respectively.

For the molecule `Cc1oc(-c2ccccc2)nc1COc1ccc(CO/N=C(\C(=O)O)C(C)C)cc1` [Example 25, Z-3-methyl-2-[4-(5-methyl-2-phenyl-4-oxazolylmethoxy)benzyloxyimino]butyric acid], the figures for the inhibition in vivo at 0.01 % in series [3] (setting [6]) and in series [3] (setting [5]) were 66% and 38%, respectively. In addition, it took 790 nM to reach a half-maximal effect in series [1] (EC50).

Regarding `Cc1oc(-c2ccccc2)nc1COc1ccc(CO/N=C(\CCC(=O)O)c2ccccc2)cc1` [Example 7, E-4-[4-(5-methyl-2-phenyl-4-oxazolylmethoxy)benzyloxyimino]-4-phenylbutyric acid], the inhibition in vivo at 0.01 % amounted to 61% in series [3] (setting [6]) and 42% in series [3] (setting [5]).

On to `COc1ccc(/C(CCCCCCC(=O)O)=N/OCc2ccc(OCc3nc(-c4ccccc4)oc3C)cc2)cc1` [Example 118, E-8-(4-methoxyphenyl)-8-[4-(5-methyl-2-phenyl-4-oxazolylmethoxy)benzyloxyimino]octanoic acid], for which the melting point lay in the range of 69 to 70 °C.

Molecule `O=C(O)CC/C(=N\OCc1ccc(OCc2cn3c(Cl)cccc3n2)cc1)c1ccccc1` [Example 55, E-4-[4-(5-chloroimidazo[1,2-a]pyridin-2-ylmethoxy)benzyloxyimino]-4-phenylbutyric acid] came in with a melting point of 160 to 161 °C.

The term EC50 denotes the concentration at which the effect is half-maximal. A higher EC50 goes with a need for much substance. What is called melting point is the temperature of the solid-liquid transition.
